Assay results taken from patent publication US4524073A, “β-Lactam compounds” (Beecham Group p.1.c., priority 1982, dated 1985).
Converted amounts (≈) assume the structure as drawn.

Tests used:
S.aureus Russell = experiment: Antibacterial activity, S. aureus Russell (Table 2); format: cell-based; conditions: Staphylococcus aureus, compound alone
E.coli JT39 = experiment: Antibacterial activity, E. coli JT39 (Table 2); format: cell-based; conditions: Escherichia coli, compound alone

| Compound | MIC (S.aureus Russell) | MIC (E.coli JT39) |
| --- | --- | --- |
| O=C(O)[C@H]1/C(=C/CNCC(O)c2ccccc2)O[C@@H]2CC(=O)N21 (stereo partly shown) [Example 30, 9-N-(2-Hydroxy-2-phenylethyl)aminodeoxyclavulanic acid] | 2 µg/mL (≈ 6.28 µM) | 31.2 µg/mL (≈ 98 µM) |
| COC(CNC/C=C1\O[C@@H]2CC(=O)N2[C@H]1C(=O)O)OC [Example 1, 9-N-(2,2-Dimethoxyethyl)amino deoxyclavulanate] | 8 µg/mL (≈ 27.9 µM) | 16 µg/mL (≈ 55.9 µM) |
| CN(C)C(=O)NCCNC/C=C1\O[C@@H]2CC(=O)N2[C@H]1C(=O)O [Example 22 (2nd compound), 9-N-(N'N'-dimethylureido)ethylaminodeoxyclavulanic acid] | 4 µg/mL (≈ 12.8 µM) | 62.5 µg/mL (≈ 200 µM) |
| CC(C)(CCCNC/C=C1\O[C@@H]2CC(=O)N2[C@H]1C(=O)O)[N+](=O)[O-] [Example 21, 9-N-[4-Methyl-4-nitropentyl]aminodeoxyclavulanic acid] | 4 µg/mL (≈ 12.2 µM) | 8 µg/mL (≈ 24.4 µM) |
| O=C(O)[C@H]1/C(=C/CNCCc2ccncc2)O[C@@H]2CC(=O)N21 [Example 5, 9-N-(2-Pyrid-4'-ylethyl)amino deoxyclavulanic acid] | 8 µg/mL (≈ 26.4 µM) | 31.2 µg/mL (≈ 103 µM) |
| O=C(O)[C@H]1/C(=C/CNCCCl)O[C@@H]2CC(=O)N21 [Example 2, 9-N-(2-Chloroethyl)amino-deoxyclavulanic acid] | 8 µg/mL (≈ 30.7 µM) | 31.2 µg/mL (≈ 120 µM) |
| O=C(O)[C@H]1/C(=C/CNCCCn2ccnc2)O[C@@H]2CC(=O)N21 [Example 18] | 8 µg/mL (≈ 26.1 µM) | 31.2 µg/mL (≈ 102 µM) |
| CS(=O)(=O)NCCCNC/C=C1\O[C@@H]2CC(=O)N2[C@H]1C(=O)O [Example 13, 9-N-(3-Methylsulphonamidopropyl)aminodeoxyclavulanic acid] | 16 µg/mL (≈ 48 µM) | 31.2 µg/mL (≈ 93.6 µM) |
| CC(=O)OCCCCNC/C=C1\O[C@@H]2CC(=O)N2[C@H]1C(=O)O [Example 20, 9-N-(4-Acetoxybutyl)aminodeoxyclavulanic acid] | 16 µg/mL (≈ 51.2 µM) | 31.2 µg/mL (≈ 99.9 µM) |
| CS(=O)(=O)NCCNC/C=C1\O[C@@H]2CC(=O)N2[C@H]1C(=O)O [Example 12, 9-N-(2-methylsulphonamidoethyl)aminodeoxyclavulanic acid] | 8 µg/mL (≈ 25.1 µM) | 31.2 µg/mL (≈ 97.7 µM) |
| O=C(O)[C@H]1/C(=C/CNCCS(=O)(=O)c2ccccc2)O[C@@H]2CC(=O)N21 [Example 23, 9-N-[2-(phenylsulphonyl)ethyl]aminodeoxyclavulanic acid] | 16 µg/mL (≈ 43.7 µM) | 31.2 µg/mL (≈ 85.2 µM) |
| O=C(O)[C@H]1/C(=C/CNCCc2c[nH]c3ccccc23)O[C@@H]2CC(=O)N21 [Example 26, 9-N-(2-Indol-3'-ylethyl)aminodeoxyclavulanic acid] | ≤ 0.5 µg/mL | 8 µg/mL (≈ 23.4 µM) |
| O=C(O)[C@H]1/C(=C/CNCCNc2ccccc2)O[C@@H]2CC(=O)N21 [Example 29, 9-N-(2-Phenylaminoethyl)aminodeoxyclavulanic acid] | 4 µg/mL (≈ 12.6 µM) | 16 µg/mL (≈ 50.4 µM) |
| O=C(O)[C@H]1/C(=C/CNCCc2ccccn2)O[C@@H]2CC(=O)N21 [Example 4, 9-N-(2-Pyrid-2'-ylethyl)aminodeoxyclavulanic acid] | 4 µg/mL (≈ 13.2 µM) | 31.2 µg/mL (≈ 103 µM) |
| NC(=O)CCNC/C=C1\O[C@@H]2CC(=O)N2[C@H]1C(=O)O [Example 28, 9-N-(2-carbamoylethyl)aminodeoxyclavulanic acid] | 16 µg/mL (≈ 59.4 µM) | 16 µg/mL (≈ 59.4 µM) |
| O=C(CCNC/C=C1\O[C@@H]2CC(=O)N2[C@H]1C(=O)O)NCc1ccccc1 [Example 25, 9-N-(3-N-Benzylcarbamoyleth-1-yl)aminodeoxyclavulanic acid] | 2 µg/mL (≈ 5.57 µM) | 8 µg/mL (≈ 22.3 µM) |
| CCOC(CCCNC/C=C1\O[C@@H]2CC(=O)N2[C@H]1C(=O)O)OCC [Example 19, 9-N-(4,4-Diethoxybutyl)amino deoxyclavulanic acid] | 16 µg/mL (≈ 46.7 µM) | 31.2 µg/mL (≈ 91.1 µM) |
